In brackets after ≈: the same amount, converted by molar mass. Where two headings read alike, the source gives them in different places.
Tests used:
[1] = system: Candida tropicalis (ATCC-1369); test: Antifungal activity, serial tube dilution method (MIC); details: for MIC: Candida tropicalis, ATCC1369, 18 h, read-out: Antifungal activity MIC, C. tropicalis, serial tube dilution, 37 °C, 18 h, average of three
[2] = system: prostate cancer cell lines (DU-145); test: Antiproliferative activity, MTT assay; type: cell-based; details: Homo sapiens, 48 h, mean ± SD (n = 3)
Procedure: (§1) The antiproliferative activity of the compounds was determined their IC50 values. Methotrexate (Mtx; positive control) was used as a reference standard for comparing the antiproliferative activity of the target compounds. The MTT (3-(4,5-dimethylthiazol-2-yl)-2,5-diphenyl tetrazolium bromide) assay was based on the reduction of the soluble MTT (0.5 mg mL^−1, 100 µL) into a blue-purple formazan product, mainly by the activity of mitochondrial reductase enzymes inside the living cells. The prostate cancer cell lines, DU-145 cells, were cultured in Dulbecco’s Modified Eagle Medium (DMEM) media at 37 °C and humidified at 5% CO2. Stock solutions of the test compounds (17–46) were prepared in 0.1% DMSO followed by dilution with sterile water to obtain the desired final concentrations. Briefly, the cells were placed on 96-well plates at 100 µL total volume with the density of 1 × 10^4 cells per well and were allowed to adhere for 24 h. Then the medium was replaced with fresh media containing different dilutions of the test compounds and incubated for additional 48 h at 37 °C in DMEM with 10% fetal bovine serum (FBS) medium. Subsequently, the medium was replaced with 90 μL of fresh DMEM without FBS. The above wells were treated with 10 μL of MTT reagent (5 mg/mL of stock solution in DMEM without FBS) and incubated at 37 °C for 3–4 h. The formed blue formazan crystals were dissolved in 200 μL of DMSO. The optical density was determined at 570 nm using a micro plate reader. The assay was performed in triplicate for three independent experiments. The same experimentation was also done to confirm that the DMSO (negative control) had no effect in the study. The results had good reproducibility between replicate wells with standard errors below 10%. The antiproliferative activity results measured as IC50 values in µg/mL were converted and expressed in µM. Additionally, the cytotoxic activity of the compounds was also measured employing the same protocol discussed above to assess their toxicity on normal human cell lines (L02).

[3] = Cytotoxic activity on normal cells, MTT assay; type: cell-based
Procedure: as §1

[4] = system: Aspergillus niger (ATCC-6275); test: Antifungal activity, serial tube dilution method (MIC); details: for MIC: Aspergillus niger
[5] = system: Mycobacterium tuberculosis H37Rv; test: Antitubercular activity, broth dilution assay (MIC); type: cell-based; details: for MIC: Middlebrook 7H9 broth, 37 °C, 21 days
[6] = L02 cells (normal human cell line)
[7] = ATCC6275, 18 h, read-out: Antifungal activity MIC, A. niger, serial tube dilution, 37 °C, 18 h, average of three
[8] = Mycobacterium tuberculosis, H37RV, 504 h
[9] = ATCC6275, read-out: Antifungal MIC, Aspergillus niger
[10] = ratio of MICs vs pyrazinamide (MIC 25.34 µM)
[11] = serial tube dilution, 37 °C, 18 h, average of three

SMILES	MIC [1] [µM]	IC50 [2] [µM]	IC50 at 48 h [3, 6] [µg/mL]	MIC [4, 7] [µM]	MIC [5, 8] [µM]	melting point [°C]	further results
O=C(/C=C/c1ccc[nH]1)c1ccc(Cl)c(Cl)c1 [Compound 15, (E)-1-(3,4-dichlorophenyl)-3-(1H-pyrrol-2-yl)prop-2-en-1-one]	60.4 (≈ 16.1 µg/mL)	94 ± 2	> 50	60.4	47.2 (≈ 12.6 µg/mL)	238	–
NC(=O)c1cnccn1 [Pyrazinamide, reference compound]	–	–	–	–	25.3 (≈ 3.12 µg/mL)	–	–
Clc1ccc(C2=NN(c3ccccc3)C(c3ccccc3Cl)C2)cc1Cl (stereo not drawn) [Compound 21, 3-(3,4-dichlorophenyl)-1-phenyl-5-(2-chlorophenyl)-4,5-dihydro-1H-pyrazole]	39.8 (≈ 16 µg/mL)	134 ± 2	> 75	19.9	15.6 to 32.4 (≈ 6.25 to 13 µg/mL)	133	MIC [4, 9]: 19.9 µg/mL; MIC [5]: 15.55 µM (≈ 6.25 µg/mL); fold better activity than the standard pyrazinamide [5, 10]: 1.6 fold
Clc1ccc(C2=NN(c3ccccc3)C(c3ccncc3)C2)cc1Cl (stereo not drawn) [Compound 28, 3-(3,4-dichlorophenyl)-1-phenyl-5-(pyridin-4-yl)-4,5-dihydro-1H-pyrazole]	21.7 (≈ 8 µg/mL)	173 ± 2	> 75	21.7	67.9 (≈ 25 µg/mL)	214	–
O=C(/C=C/c1ccncc1)c1ccc(Cl)c(Cl)c1 [Compound 13]	113 (≈ 31.4 µg/mL)	209 ± 2	> 50	57.8	45.1 (≈ 12.5 µg/mL)	–	–
O=C(/C=C/c1cccs1)c1ccc(Cl)c(Cl)c1 [Compound 16, (E)-1-(3,4-dichlorophenyl)-3-(thiophen-2-yl)prop-2-en-1-one]	14.1 (≈ 4 µg/mL)	17 ± 1	–	14.1	22.1 (≈ 6.25 µg/mL)	194	fold better activity in comparison to fluconazole, Candida tropicalis [1]: 1.35 fold; IC50 at 48 h ([3]; normal human cell line L02): > 50 µg/mL; fold better activity in comparison to fluconazole, Aspergillus niger [4]: 1.84 fold
O=C(/C=C/c1ccc(F)cc1F)c1ccc(Cl)c(Cl)c1 [Compound 7, (E)-1-(3,4-dichlorophenyl)-3-(2,4-difluorophenyl)prop-2-en-1-one]	51.1 (≈ 16 µg/mL)	31 ± 2	> 50	25.5	9.96 (≈ 3.12 µg/mL)	265	–
Fc1ccccc1C1CC(c2ccc(Cl)c(Cl)c2)=NN1c1ccccc1 (stereo not drawn) [Compound 19, 3-(3,4-dichlorophenyl)-1-phenyl-5-(2-fluorophenyl)-4,5-dihydro-1H-pyrazole]	41.5 (≈ 16 µg/mL)	327 ± 2	> 75	20.8	–	149	MIC [4, 9]: 20.8 µg/mL; MIC [5]: 32.44 µM (≈ 12.5 µg/mL); fold less activity than pyrazinamide [5, 10]: 1.2 fold
Clc1ccc(C2=NN(c3ccccc3)C(c3cccnc3)C2)cc1Cl (stereo not drawn) [Compound 27, 3-(3,4-dichlorophenyl)-1-phenyl-5-(pyridin-3-yl)-4,5-dihydro-1H-pyrazole]	21.7 (≈ 8 µg/mL)	211 ± 2	> 75	21.7	67.9 (≈ 25 µg/mL)	184	–
O=C(/C=C/c1ccc(Cl)cc1Cl)c1ccc(Cl)c(Cl)c1 [Compound 8, (E)-1-(3,4-dichlorophenyl)-3-(2,4-dichlorophenyl)prop-2-en-1-one]	46.2 (≈ 16 µg/mL)	254 ± 2	> 50	23.1	18.1 (≈ 6.25 µg/mL)	299	–
Clc1ccc(C2=NN(c3ccccc3)C(c3cccs3)C2)cc1Cl (stereo not drawn) [Compound 31, 3-(3,4-dichlorophenyl)-1-phenyl-5-(thiophen-2-yl)-4,5-dihydro-1H-pyrazole]	5.35 (≈ 2 µg/mL)	32 ± 1	–	5.35	8.35 (≈ 3.12 µg/mL)	212	fold better activity in comparison to fluconazole, Candida tropicalis [1]: 3.7 fold; fold improvement in MIC of dihydropyrazole over chalcone 16, Candida tropicalis ([1]; 31 (5.35 µM) vs 16 (14.12 µM)): 2.6 fold; IC50 at 48 h ([3]; normal human cell line L02): > 75 µg/mL; fold better activity in comparison to fluconazole, Aspergillus niger [4]: 4.9 fold; fold improvement in MIC of dihydropyrazole over chalcone 16, Aspergillus niger ([4]; 31 (5.35 µM) vs 16 (14.12 µM)): 2.6 fold; fold more antitubercular activity than the chalcones 14 and 16 ([5]; 29 vs 14, 31 vs 16): 2.6 fold
Fc1ccc(C2CC(c3ccc(Cl)c(Cl)c3)=NN2c2ccccc2)c(F)c1 (stereo not drawn) [Compound 22, 3-(3,4-dichlorophenyl)-1-phenyl-5-(2,4-difluorophenyl)-4,5-dihydro-1H-pyrazole]	19.8 (≈ 8 µg/mL)	262 ± 2	> 75	19.8	3.96 (≈ 1.6 µg/mL)	291	–
Clc1ccc(C2CC(c3ccc(Cl)c(Cl)c3)=NN2c2ccccc2)c(Cl)c1 (stereo not drawn) [Compound 23, 3-(3,4-dichlorophenyl)-1-phenyl-5-(2,4-dichlorophenyl)-4,5-dihydro-1H-pyrazole]	36.7 (≈ 16 µg/mL)	206 ± 2	> 75	18.3	7.15 (≈ 3.12 µg/mL)	302	fold improvement in antitubercular activity compared to compound 20 ([5]; comparator compound 20): 4 fold; fold improvement in antitubercular activity compared to compound 21 ([5]; comparator compound 21): 2 fold
O=C(/C=C/c1ccc2c(c1)OCO2)c1ccc(Cl)c(Cl)c1 [Compound 10]	180 (≈ 57.8 µg/mL)	138 ± 2	> 50	23	72.2 (≈ 23.2 µg/mL)	–	Antifungal activity MIC, C. tropicalis [1, 11]: 180.62 µM; Antifungal activity MIC, A. niger [4, 11]: 23.11 µM
O=C(/C=C/c1ccc(Cl)cc1)c1ccc(Cl)c(Cl)c1 [Compound 5]	51.3 (≈ 16 µg/mL)	147 ± 2	> 50	25.7	80.2 (≈ 25 µg/mL)	–	–
FC(F)(F)c1ccc(C2CC(c3ccc(Cl)c(Cl)c3)=NN2c2ccccc2)cc1 (stereo not drawn) [Compound 24, 3-(3,4-dichlorophenyl)-1-phenyl-5-(4-trifluoromethylphenyl)-4,5-dihydro-1H-pyrazole]	9.18 (≈ 4 µg/mL)	257 ± 2	> 75	9.18	3.67 (≈ 1.6 µg/mL)	125	fold improvement in activity over compound 17 (CH3 replaced with CF3), Candida tropicalis ([1]; comparator compound 17): 4.6 fold; fold improvement in activity over compound 17 (CH3 replaced with CF3), Aspergillus niger ([4]; comparator compound 17): 4.6 fold; fold better activity than the standard pyrazinamide [5, 10]: sevenfold
Cc1ccc(C2CC(c3ccc(Cl)c(Cl)c3)=NN2c2ccccc2)cc1 (stereo not drawn) [Compound 17, 3-(3,4-dichlorophenyl)-1-phenyl-5-(p-tolyl)-4,5-dihydro-1H-pyrazole]	42 (≈ 16 µg/mL)	351 ± 2	> 75	42	262 (≈ 100 µg/mL)	168	–
O=C(/C=C/c1ccco1)c1ccc(Cl)c(Cl)c1 [Compound 14, (E)-1-(3,4-dichlorophenyl)-3-(furan-2-yl)prop-2-en-1-one]	117 (≈ 31.4 µg/mL)	206 ± 2	> 50	235	47 (≈ 12.6 µg/mL)	172	–
O=C(/C=C/c1ccc(F)cc1)c1ccc(Cl)c(Cl)c1 [Compound 3]	54.2 (≈ 16 µg/mL)	176 ± 2	> 50	54.2	84.7 (≈ 25 µg/mL)	–	–
Clc1ccc(C2=NN(c3ccccc3)C(c3ccccn3)C2)cc1Cl (stereo not drawn) [Compound 26, 3-(3,4-dichlorophenyl)-1-phenyl-5-(pyridin-2-yl)-4,5-dihydro-1H-pyrazole]	21.7 (≈ 8 µg/mL)	271 ± 2	> 75	21.7	67.9 (≈ 25 µg/mL)	191	–
OC(Cn1cncn1)(Cn1cncn1)c1ccc(F)cc1F [Fluconazole, reference compound]	19.6 (≈ 6 µg/mL)	–	–	26.1	–	–	–
O=C(/C=C/c1ccccc1Cl)c1ccc(Cl)c(Cl)c1 [Compound 6]	51.3 (≈ 16 µg/mL)	141 ± 2	> 50	25.7	20.1 (≈ 6.25 µg/mL)	–	–
Cc1ccc(/C=C/C(=O)c2ccc(Cl)c(Cl)c2)cc1 [Compound 2]	110 (≈ 32 µg/mL)	432 ± 2	> 50	110	343 (≈ 100 µg/mL)	–	–
O=C(/C=C/c1ccccc1F)c1ccc(Cl)c(Cl)c1 [Compound 4]	54.2 (≈ 16 µg/mL)	393 ± 2	> 50	27.1	84.7 (≈ 25 µg/mL)	–	–

From article PMC7397056, “Design, Facile Synthesis and Characterization of Dichloro Substituted Chalcones and Dihydropyrazole Derivatives for Their Antifungal, Antitubercular and Antiproliferative Activities” (Molecules, 2020)
